According to patent publication US20210277264A1, “INK COMPOSITIONS” (HEWLETT-PACKARD DEVELOPMENT COMPANY, L.P., priority 2018, published 2021):
Where two headings read alike, the source gives them in different places.

Assay: Partition coefficient (log P 1-octanol/water) of organic co-solvents
Excerpt: The hydrophilicity of the organic co-solvent can be quantified as a partition coefficient. As used herein, “partition coefficient” refers to a concentration ratio of a compound in an equilibrium mixture of two immiscible phases, and can be a measure of the difference in solubility of the compound in the two immiscible phases. Formula I provides an equation of quantifying the hydrophilicity of the organic co-solvents of the present disclosure, as follows: […]

[1] = equilibrium mixture of 1-octanol and water

## O=C1CCCN1 [2-pyrrolidone]
[1]
  Partition Coefficient (log P1-octanol/water): −0.10

## CC1(C)NC(=O)NC1=O [5,5-dimethyl hydantoin]
  Partition Coefficient (log P1-octanol/water): −0.40

## CCCCCCCCO [Ink 1-octanol, 1-octanol]
  Partition Coefficient (log P1-octanol/water): 2.34

## O=C1CCCN1CCO [N-(2-hydroxyethyl)-2-pyrrolidinone]
  Partition Coefficient (log P1-octanol/water): −0.40

## CC1(C)C(=O)N(CCO)C(=O)N1CCO [di-(2-hydroxyethy)-5,5-dimethylhydantoin]
  Partition Coefficient (log P1-octanol/water): −1.39

## CCC(CO)(CO)CO [ethylhydroxy propanediol]
[1]
  Partition Coefficient (log P1-octanol/water): −0.50

## OCCOCCOCCO [triethylene glycol]
  Partition Coefficient (log P1-octanol/water): −1.00

## O [water]
  Partition Coefficient (log P1-octanol/water): −0.825
